Reference: publication PMC13159116, “Affinity‐Based Interactome Mapping of Inositol Pyrophosphates Reveals 4/6‐PP‐InsP5‐Binding Proteins in Plants” (Advanced Science, 2026)

Target: T1, AtFHA2 (Arabidopsis thaliana, UniProt Q9SFV2)
T1 construct: gene FHA2; recombinant AtFHA2 (AT3G07220.1)
T1 sequence (Q9SFV2 2-320): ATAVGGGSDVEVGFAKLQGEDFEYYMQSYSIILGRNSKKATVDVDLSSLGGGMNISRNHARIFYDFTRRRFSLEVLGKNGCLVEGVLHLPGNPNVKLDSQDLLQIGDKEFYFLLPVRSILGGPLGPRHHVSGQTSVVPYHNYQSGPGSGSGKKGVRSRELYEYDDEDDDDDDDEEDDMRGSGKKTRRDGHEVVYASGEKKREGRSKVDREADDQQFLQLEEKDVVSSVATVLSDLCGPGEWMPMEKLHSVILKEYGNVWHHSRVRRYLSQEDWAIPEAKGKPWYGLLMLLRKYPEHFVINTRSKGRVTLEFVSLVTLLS
Experiment: isothermal titration calorimetry (ITC) with recombinant protein
Assay type: binding

| Kd [µM] | Structure (SMILES) |
| --- | --- |
| 4.9 ± 2.24 | O=P(O)(O)O[C@H]1[C@H](OP(=O)(O)O)[C@@H](OP(=O)(O)O)[C@H](OP(=O)(O)OP(=O)(O)O)[C@@H](OP(=O)(O)O)[C@H]1OP(=O)(O)O [compound 4, 4-PP-InsP5] |
| > 100 | O=P(O)(O)O[C@H]1[C@H](OP(=O)(O)O)[C@@H](OP(=O)(O)O)[C@H](OP(=O)(O)O)[C@@H](OP(=O)(O)O)[C@H]1OP(=O)(O)O [compound 6, InsP6] |
